Measured values from patent US20060235076A1, “Medicinal composition for treating infection with drug-resistant staphylococcus aureus” (priority 2003, published 2006).
Converted amounts (≈) assume the structure as drawn. Like-named read-outs stand apart in the source and are kept apart here.

System: MRSA and MSSA
Experiment: Antibacterial activity of gallic acid, various gallates and multivalent phenol derivatives alone (agar plate dilution method, MIC)
Format: cell-based, Staphylococcus aureus
Conditions: Staphylococcus aureus
Method: According to the agar plate dilution method defined by Japan Society of Chemotherapy, MIC (Minimum inhibitory concentration) was determined. CAMHA was prepared by adding 50 mg/l of Ca-ion, 25 mg/l of Mg-ion, and 2% of NaCl to Mueller-Hinton II Agar (MHA), and it was used as a medium for use in the measurement of sensitivity. The bacterial liquid was incubated at 37° C. overnight and diluted to 10^6 CFU/ml with saline.
MIC for gallic acid, various gallates and multivalent phenol derivatives alone with MRSA and MSSA were determined as described in experiment 2.

[1] = ATCC 6538 / MRSA / MSSA, ATCC6538, read-out: MIC alone
[2] = MSSA #1003, read-out: MIC alone
[3] = MSSA #1010, read-out: MIC alone
[4] = MSSA #1020, read-out: MIC alone
[5] = MSSA #1023, read-out: MIC alone
[6] = MSSA #1029, read-out: MIC alone
[7] = MSSA #1032, read-out: MIC alone
[8] = compound alone, over all strains of Table 3-1, read-out: MIC50

SMILES: O=C(O)c1cc(O)c(O)c(O)c1 [Gallic acid, gallic acid, reference compound]
- MIC [1]: 62.5 µg/mL (≈ 367 µM)
- MIC (COL, read-out: MIC alone): 62.5 µg/mL (≈ 367 µM)
- MIC (MRSA #1, read-out: MIC alone): 31.3 µg/mL (≈ 184 µM)
- MIC (MRSA #2, read-out: MIC alone): 62.5 µg/mL (≈ 367 µM)
- MIC (MRSA #3, read-out: MIC alone): 31.3 µg/mL (≈ 184 µM)
- MIC (MRSA #4, read-out: MIC alone): 62.5 µg/mL (≈ 367 µM)
- MIC (MRSA #5, read-out: MIC alone): 31.3 µg/mL (≈ 184 µM)
- MIC (MRSA #6, read-out: MIC alone): 31.3 µg/mL (≈ 184 µM)
- MIC (MRSA #7, read-out: MIC alone): 62.5 µg/mL (≈ 367 µM)
- MIC (MRSA #8, read-out: MIC alone): 31.3 µg/mL (≈ 184 µM)
- MIC (MRSA #9, read-out: MIC alone): 31.3 µg/mL (≈ 184 µM)
- MIC (MRSA #10, read-out: MIC alone): 31.3 µg/mL (≈ 184 µM)
- MIC (MRSA #12, read-out: MIC alone): 62.5 µg/mL (≈ 367 µM)
- MIC (MRSA #16, read-out: MIC alone): 31.3 µg/mL (≈ 184 µM)
- MIC (MRSA #17, read-out: MIC alone): 62.5 µg/mL (≈ 367 µM)
- MIC (MRSA #18, read-out: MIC alone): 62.5 µg/mL (≈ 367 µM)
- MIC (MRSA #20, read-out: MIC alone): 62.5 µg/mL (≈ 367 µM)
- MIC (MRSA #21, read-out: MIC alone): 62.5 µg/mL (≈ 367 µM)
- MIC (MRSA #22, read-out: MIC alone): 62.5 µg/mL (≈ 367 µM)
- MIC (MRSA #24, read-out: MIC alone): 62.5 µg/mL (≈ 367 µM)
- MIC [2]: 62.5 µg/mL (≈ 367 µM)
- MIC [3]: 62.5 µg/mL (≈ 367 µM)
- MIC [4]: 62.5 µg/mL (≈ 367 µM)
- MIC [5]: 31.3 µg/mL (≈ 184 µM)
- MIC [6]: 31.3 µg/mL (≈ 184 µM)
- MIC [7]: 31.3 µg/mL (≈ 184 µM)
- MIC50 [8]: 62.5 µg/mL (≈ 367 µM)

SMILES: CC(C)CCOC(=O)c1ccc(O)cc1 [Isoamyl 4-hydroxybenzoate]
- MIC50: 62.5 µg/mL (≈ 300 µM)
- MIC (ATCC 6538 / MRSA / MSSA): 62.5 µg/mL (≈ 300 µM)
- MIC (COL, compound alone, read-out: MIC): 62.5 µg/mL (≈ 300 µM)
- MIC (MRSA #1, compound alone, read-out: MIC): 62.5 µg/mL (≈ 300 µM)
- MIC (MRSA #2, compound alone, read-out: MIC): 62.5 µg/mL (≈ 300 µM)
- MIC (MRSA #3, compound alone, read-out: MIC): 62.5 µg/mL (≈ 300 µM)
- MIC (MRSA #4, compound alone, read-out: MIC): 62.5 µg/mL (≈ 300 µM)
- MIC (MRSA #5, compound alone, read-out: MIC): 62.5 µg/mL (≈ 300 µM)
- MIC (MRSA #6, compound alone, read-out: MIC): 62.5 µg/mL (≈ 300 µM)
- MIC (MRSA #7, compound alone, read-out: MIC): 62.5 µg/mL (≈ 300 µM)
- MIC (MRSA #8, compound alone, read-out: MIC): 62.5 µg/mL (≈ 300 µM)
- MIC (MRSA #9, compound alone, read-out: MIC): 62.5 µg/mL (≈ 300 µM)
- MIC (MRSA #10, compound alone, read-out: MIC): 31.3 µg/mL (≈ 150 µM)
- MIC (MRSA #12, compound alone, read-out: MIC): 62.5 µg/mL (≈ 300 µM)
- MIC (MRSA #16, compound alone, read-out: MIC): 62.5 µg/mL (≈ 300 µM)
- MIC (MRSA #17, compound alone, read-out: MIC): 62.5 µg/mL (≈ 300 µM)
- MIC (MRSA #18, compound alone, read-out: MIC): 62.5 µg/mL (≈ 300 µM)
- MIC (MRSA #20, compound alone, read-out: MIC): 62.5 µg/mL (≈ 300 µM)
- MIC (MRSA #21, compound alone, read-out: MIC): 62.5 µg/mL (≈ 300 µM)
- MIC (MRSA #22, compound alone, read-out: MIC): 62.5 µg/mL (≈ 300 µM)
- MIC (MRSA #24, compound alone, read-out: MIC): 62.5 µg/mL (≈ 300 µM)
- MIC (MSSA #1003, compound alone, read-out: MIC): 62.5 µg/mL (≈ 300 µM)
- MIC (MSSA #1010, compound alone, read-out: MIC): 62.5 µg/mL (≈ 300 µM)
- MIC (MSSA #1020, compound alone, read-out: MIC): 62.5 µg/mL (≈ 300 µM)
- MIC (MSSA #1023, compound alone, read-out: MIC): 62.5 µg/mL (≈ 300 µM)
- MIC (MSSA #1029, compound alone, read-out: MIC): 62.5 µg/mL (≈ 300 µM)
- MIC (MSSA #1032, compound alone, read-out: MIC): 62.5 µg/mL (≈ 300 µM)

SMILES: COC(=O)c1cc(O)c(O)c(O)c1 [Methyl gallate, methyl gallate]
- MIC [1]: 250 µg/mL (≈ 1360 µM)
- MIC (COL, read-out: MIC alone): 250 µg/mL (≈ 1360 µM)
- MIC (MRSA #1, read-out: MIC alone): 250 µg/mL (≈ 1360 µM)
- MIC (MRSA #2, read-out: MIC alone): 125 µg/mL (≈ 679 µM)
- MIC (MRSA #3, read-out: MIC alone): 250 µg/mL (≈ 1360 µM)
- MIC (MRSA #4, read-out: MIC alone): 125 µg/mL (≈ 679 µM)
- MIC (MRSA #5, read-out: MIC alone): 250 µg/mL (≈ 1360 µM)
- MIC (MRSA #6, read-out: MIC alone): 125 µg/mL (≈ 679 µM)
- MIC (MRSA #7, read-out: MIC alone): 250 µg/mL (≈ 1360 µM)
- MIC (MRSA #8, read-out: MIC alone): 250 µg/mL (≈ 1360 µM)
- MIC (MRSA #9, read-out: MIC alone): 62.5 µg/mL (≈ 339 µM)
- MIC (MRSA #10, read-out: MIC alone): 62.5 µg/mL (≈ 339 µM)
- MIC (MRSA #12, read-out: MIC alone): 250 µg/mL (≈ 1360 µM)
- MIC (MRSA #16, read-out: MIC alone): 125 µg/mL (≈ 679 µM)
- MIC (MRSA #17, read-out: MIC alone): 125 µg/mL (≈ 679 µM)
- MIC (MRSA #18, read-out: MIC alone): 125 µg/mL (≈ 679 µM)
- MIC (MRSA #20, read-out: MIC alone): 250 µg/mL (≈ 1360 µM)
- MIC (MRSA #21, read-out: MIC alone): 250 µg/mL (≈ 1360 µM)
- MIC (MRSA #22, read-out: MIC alone): 250 µg/mL (≈ 1360 µM)
- MIC (MRSA #24, read-out: MIC alone): 250 µg/mL (≈ 1360 µM)
- MIC [2]: 250 µg/mL (≈ 1360 µM)
- MIC [3]: 250 µg/mL (≈ 1360 µM)
- MIC [4]: 250 µg/mL (≈ 1360 µM)
- MIC [5]: 125 µg/mL (≈ 679 µM)
- MIC [6]: 62.5 µg/mL (≈ 339 µM)
- MIC [7]: 250 µg/mL (≈ 1360 µM)
- MIC50 [8]: 250 µg/mL (≈ 1360 µM)
